Marks after values point to notes of the source that are not given here.
Experiments:
[1] = Blood hemoglobin levels in indomethacin-induced enteropathy in rats (Example 16); assay type: in vivo, male Albino Sprague Dawley rats
Protocol: (§1) Twenty four hours after the last dose, the rats were euthanized and samples of blood were collected for the assessment of hemoglobin levels.
Hemoglobin analysis was performed on rat blood samples collected as reported above, by means of Quantichrom Hemoglobin assay kit (Bioassay Systems, Hayward, Calif., USA) and expressed as g/dL.

myeloperoxidase (MPO) [2] = experiment: Tissue myeloperoxidase (MPO) levels in jejunum and ileum, ELISA (Example 16); assay type: in vivo, male Albino Sprague Dawley rats; conditions: rats; indomethacin […] BID 14 days, alone or with gastroresistant rifaximin 25 or 50 mg/kg BID or rifaximin polymorph alpha 50 mg/kg BID
Protocol: (§2) The whole intestinal tract was removed and processed for the evaluation of tissue myeloperoxidase (MPO) levels and histological analysis of intestinal damage in jejunum and ileum.
Specimens of intestinal tissues (30 mg) were homogenized on ice with a polytron homogenizer (QIAGEN, Milan, Italy) in 0.6 mL of ice-cold lysis buffer (200 mM NaCl, 5 mM EDTA, 10 mM Tris, 10% glycerine, 1 mM PMSF, 1 μg/ml leupeptin and 28 μg/ml aprotinin (pH 7.4). The homogenate was centrifuged 2 times at 4° C. for 15 min at 1.500 g. The supernatant was diluted 1:5 and used for determination of MPO concentration by means of enzyme-linked immunosorbent assay (ELISA) (Hycult Biotech, Uden, Netherlands). All samples were assayed within 2 day after collection. The results were expressed as nanograms of MPO per milligram of intestinal tissue.

[3] = test system: indomethacin - induced microscopic intestinal damage; experiment: Histological analysis of intestinal damage in jejunum and ileum (Example 16); assay type: in vivo, male Albino Sprague Dawley rats; conditions: rats; indomethacin […] BID 14 days, alone or with gastroresistant rifaximin 25 and 50 mg/kg BID or rifaximin polymorph alpha 50 mg/kg BID
Protocol: as §2
(§3) Pharmacol. Ther. 1993; 7:29-39. Upon removal, the whole intestinal tract was immediately injected with 10% formalin and left in the same fixative solution. After 30 min, it was opened along the anti-mesenteric border, cleaned of fecal content and fixed in 10% formalin for 24 h. Tissue samples were taken as described below and the full length of small intestine was measured.
In particular the following tissue samples were taken • Ileum: 1 cm of tissue proximal to the ileo-cecal valve was discarded and two specimens of 1.5-2 cm of ileum were taken at this edge as well as 5 cm away from the first ileum sample • Proximal jejunum: two specimens of 1.5-2 cm were taken 5 cm away from both the proximal and distal end of the 37.5% of the small intestine total length. • Distal jejunum: two specimens of 1.5-2 cm were taken 5 cm away from both the proximal and distal end of 81% of small intestine's total length.
After fixation, tissues were embedded into paraffin blocks and were cut into consecutive serial 3-μm sections for staining with hematoxylin and eosin. Histological damage was assessed by two observers, blind to the treatment. Each section was given a score of lesion (Type 1 to 3) (TABLE 23).
Quantitative assessment of histological damage was expressed as percentage of the total length of lesions over the total length of the histological section.

[4] = Mortality in indomethacin- and diclofenac-induced enteropathy in rats (Example 17); conditions: 14 days, indomethacin […] BID, diclofenac 4 mg/kg BID, omeprazole 0.7 mg/kg/day, gastroresistant rifaximin 50 mg/kg BID, as named in the label
Protocol: (§4) A total of one hundred forty two (142) male Albino Sprague Dawley rats, 500 to 600 g body weight (40-week old) were assessed.
(§5) Group 1: ten animals treated with drug vehicle for 14 days (normal controls).
(§6) Group 6: twelve omeprazole-treated animals co-treated with gastroresistant rifaximin (50 mg/kg BID) for 14 days (omeprazole controls)
(§7) The enteropathy induced using diclofenac was carried out in the groups 8 to 11 as follows:
(§8) Group 8: fifteen animals treated with diclofenac 4 mg/kg BID (diclofenac ulcerated control
(§9) Group 9: fifteen animals treated with diclofenac 4 mg/kg BID and omeprazole 0.7 mg/kg once daily (diclofenac and omeprazole ulcerated control)
(§10) Group 10: twelve diclofenac-treated animals co-treated with gastroresistant rifaximin (50 mg/kg BID) for 14 days
(§11) Group 11: twelve diclofenac- and omeprazole-treated animals co-treated with gastroresistant rifaximin (50 mg/kg BID) for 14 days
(§12) Groups 1 to 11 were treated as follows:
(§13) Group 1 received 1% methylcellulose (0.3 ml/rat) and 1% methylcellulose (1 ml/rat) for 14 days.
(§14) Group 6 received gastroresistant rifaximin (50 mg/kg; 12 rats/group) suspended in 1% methylcellulose (1 ml/rat), twice daily, 1 hour before omeprazole 0.7 mg/kg once daily
(§15) Group 8 non-fasted rats were treated for 14 days with diclofenac 4 mg/kg BID by intragastric route, suspended in 1% methylcellulose and administered in a volume of 0.3 ml/rat.
(§16) Group 9 non-fasted rats were treated for 14 days with diclofenac 4 mg/kg BID, plus omeprazole 0.7 mg/kg once daily, by intragastric route, suspended in 1% methylcellulose and administered in a volume of 0.3 ml/rat.
(§17) Group 10 received gastroresistant rifaximin (50 mg/kg; 12 rats/group) suspended in 1% methylcellulose (1 ml/rat), twice daily, 1 hour before diclofenac administration
(§18) Group 11 received gastroresistant rifaximin (50 mg/kg; 12 rats/group) suspended in 1% methylcellulose (1 ml/rat), twice daily, 1 hour before diclofenac administration plus omeprazole 0.7 mg/kg once daily.

[5] = Blood hemoglobin levels in indomethacin- and diclofenac-induced enteropathy in rats (Example 17); assay type: in vivo, male Albino Sprague Dawley rats; conditions: 14 days; for Blood hemoglobin levels (in words): indomethacin […] BID, diclofenac 4 mg/kg BID, omeprazole 0.7 mg/kg/day, gastroresistant rifaximin 50 mg/kg BID, as named in the label; for Hemoglobin (g/dl): indomethacin […] BID or diclofenac 4 mg/kg BID
Protocol: as §4, §5, §6, §7, §8, §9, §10, §11, §12, §13, §14, §15, §16, §17, §18, §1
Haemoglobin analysis was performed on blood samples collected as reported above, using a Quantichrom Hemoglobin assay kit (Bioassay Systems, Hayward, Calif., USA) and expressed as g/dL.

malondialdehyde (MDA) = experiment: Tissue malondialdehyde (MDA) levels in jejunum and ileum, colorimetric assay (Example 17); assay type: in vivo, male Albino Sprague Dawley rats; conditions: rats, indomethacin […] BID or diclofenac 4 mg/kg BID, 14 days
Protocol: (§19) (indomethacin plus omeprazole ulcerated controls)
as §12
(§20) The whole intestinal tract was removed and intestinal tissue specimens processed for the evaluation of tissue myeloperoxidase (MPO) levels, an index of tissue neutrophils infiltration, of tissue malondialdehyde (MDA) levels, an index of lipid peroxidation and histological analysis of intestinal damage in jejunum and ileum.
MDA concentration in intestinal tissues was determined to obtain quantitative estimates of membrane lipid peroxidation as described by Fornai et al., NSAID-Induced Enteropathy: Are the Currently Available Selective COX-2 Inhibitors All the Same? J Pharmacol Exp Ther January 2014 348:86-95. For this purpose, intestinal tissue was excised, weighed, minced by forceps, homogenized in 2 ml of cold buffer consisting of Tris-HCl 20 mM, at pH 7.4, using a polytron homogenizer (QIAGEN, Milan, Italy), and centrifuged at 1,500 g for 10 min at 4° C. Aliquots of supernatants were then used for subsequent assay procedures. Mucosal MDA concentrations were estimated using a colorimetric assay kit (Cayman Chemical, Ann Arbor, Mich., U.S.A.). Results were expressed as nanomoles of MDA per milligram of intestinal tissue.

[6] = test system: indomethacin- and diclofenac-induced small intestinal damage; experiment: Microscopical analysis of small intestinal damage in jejunum and ileum (Example 17); assay type: in vivo, male Albino Sprague Dawley rats; conditions: rats, 14 days; for Ileum lesions type 1, 2 and 3 (in words) / Jejunal lesions type 1, 2 and 3 (in words): indomethacin […] BID, diclofenac 4 mg/kg BID, omeprazole 0.7 mg/kg/day, gastroresistant rifaximin 50 mg/kg BID, as named in the label; for Ileum Type 1 lesion (%) / Ileum Type 2 lesion (%) / Ileum Type 3 lesion (%) / Jejunum Type 1 lesion (%) / Jejunum Type 2 lesion (%) / Jejunum Type 3 lesion (%): indomethacin […] BID or diclofenac 4 mg/kg BID
Protocol: as §5, §6, §7, §8, §9, §10, §11, §12, §13, §14, §15, §16, §17, §18, §20
as §3, with “Upon” for “Pharmacol. Ther. 1993; 7:29-39. Upon”, “in order to rule out any bias:” for “and the full length of small intestine was measured.”
The full length of the small intestine was measured.
Sections of jejunum and ileum were embedded into paraffin blocks and cut into […] serial 7-8 μm sections. The slices were cut at two different points of the block: two on the surface and three at a deeper level. Each slice was placed on the slide for staining with haematoxylin and eosin.
The intestinal damage was classified as reported in Table 27 wherein reference is made with respect to the histological appearance of type 1, 2 and 3 lesions of jejunum and ileum to the illustration of FIG. 1
The statistical significance of data was evaluated by one way analysis of variance (ANOVA) followed by post hoc analysis by Student-Newman-Keuls test, and P values lower than 0.05 were considered significant. All statistical procedures were performed using GraphPad Prism 3.0 software (GraphPad Prism, San Diego, Calif., USA).

myeloperoxidase (MPO) [7] = experiment: Tissue myeloperoxidase (MPO) levels in jejunum and ileum, ELISA (Example 17); assay type: in vivo, male Albino Sprague Dawley rats; conditions: rats, indomethacin […] BID or diclofenac 4 mg/kg BID, 14 days
Protocol: as §19, §12, §20
MPO was assessed as described by Fornai et al., NSAID-Induced Enteropathy: Are the Currently Available Selective COX-2 Inhibitors All the Same, J Pharmacol Exp Ther January 2014 348:86-95 and assumed as a quantitative index to estimate the degree of intestinal wall infiltration by polymorphonuclear cells.
Specimens of 30 mg intestinal tissues were homogenized on ice with a polytron homogenizer (QIAGEN, Milan, Italy) in 0.6 mL of ice-cold lysis buffer consisting of 200 mM NaCl, 5 mM EDTA, 10 mM Tris, 10% glycerine, 1 mM phenylmethylsulfonyl fluoride, 1 μg/ml leupeptin and 28 μg/ml aprotinin at pH 7.4. The homogenate was centrifuged 2 times at […] at 1.500 g. The supernatant was diluted 1:5 and used for determination of MPO concentration by means of enzyme-linked immunosorbent assay (ELISA). (Hycult Biotech, Uden, Netherlands). All samples were assayed as described in Example 15. The results were expressed as nanograms of MPO per milligram of intestinal tissue.

Row | SMILES | Mortality (dead/treated animals) [4] | Blood hemoglobin levels (in words) [5] | Hemoglobin (g/dl) [5] | Ileum MDA (nmol/mg tissue) (malondialdehyde (MDA)) | Jejunum MDA (nmol/mg tissue) (malondialdehyde (MDA)) | Ileum lesions type 1, 2 and 3 (in words) [6] | Jejunal lesions type 1, 2 and 3 (in words) [6] | Ileum Type 1 lesion (%) [6] | Ileum Type 2 lesion (%) [6] | Ileum Type 3 lesion (%) [6] | Jejunum Type 1 lesion (%) [6] | Jejunum Type 2 lesion (%) [6] | Jejunum Type 3 lesion (%) [6] | further results
1 | COc1ccc2c(c1)c(CC(=O)O)c(C)n2C(=O)c1ccc(Cl)cc1 [Indomethacin, indomethacin] | 2/15 | significant decrease in blood haemoglobin concentration | 11.6* g/dl | 54.47* nmol/mg tissue | 66.15* nmol/mg tissue | occurrence of various degrees of type 1, 2 and 3 lesions in both jejunum and ileum | occurrence of various degrees of type 1, 2 and 3 lesions in both jejunum and ileum | 28.3* % | 11.8* % | 5.2* % | 36* % | 18* % | 4.6* % | Reduction in hemoglobin values ([1]; end of the treatment period (14 days), in respect to the control): about 20%; Blood hemoglobin concentration (in words) ([1]; indomethacin […] BID 14 days, alone or with gastroresistant rifaximin at both doses or rifaximin polymorph alpha 50 mg/kg BID): significant decrease in blood hemoglobin concentration; Ileum tissue MPO levels (in words) (myeloperoxidase (MPO) [2]): significant increase in tissue MPO levels; Jejunum tissue MPO levels (in words) (myeloperoxidase (MPO) [2]): significantly increased; Ileum type 1 lesions, microscopic assessment (in words) [3]: occurrence of type 1 and 2 lesions; Ileum type 2 lesions, microscopic assessment (in words) [3]: occurrence of type 1 and 2 lesions; Ileum type 3 lesions, microscopic assessment (in words) [3]: no significant differences were detected for type 3 lesions; Jejunum type 1 lesions, microscopic assessment (in words) [3]: occurrence of various degrees of type 1, 2 and 3 lesions; Jejunum type 2 lesions, microscopic assessment (in words) [3]: occurrence of various degrees of type 1, 2 and 3 lesions; Jejunum type 3 lesions, microscopic assessment (in words) [3]: occurrence of various degrees of type 1, 2 and 3 lesions; Ileum MDA (nmol/mg tissue) (malondialdehyde (MDA); listed as indomethacin): 54.47 nmol/mg tissue; Jejunum MDA (nmol/mg tissue) (malondialdehyde (MDA); listed as indomethacin): 66.15 nmol/mg tissue
2 | O=C(O)Cc1ccccc1Nc1c(Cl)cccc1Cl [Diclofenac, diclofenac] | 7/15 | significant decrease in blood haemoglobin concentration | 11.3* g/dl | 67.1* nmol/mg tissue | 69.44* nmol/mg tissue | occurrence of various degrees of type 1, 2 and 3 lesions in both jejunum and ileum | occurrence of various degrees of type 1, 2 and 3 lesions in both jejunum and ileum | 26* % | 8.8* % | 3* % | 24.6* % | 4.2* % | 0.8* % | Mortality (%) ([4]; listed as diclofenac): 46.7%; Ileum MPO (ng/mg tissue) (myeloperoxidase (MPO) [7]): 19.35* ng/mg tissue; Jejunum MPO (ng/mg tissue) (myeloperoxidase (MPO) [7]): 20.37* ng/mg tissue; Ileum MPO (ng/mg tissue) (myeloperoxidase (MPO) [7]; listed as diclofenac): 19.35 ng/mg tissue; Jejunum MPO (ng/mg tissue) (myeloperoxidase (MPO) [7]; listed as diclofenac): 20.37 ng/mg tissue; Ileum MDA (nmol/mg tissue) (malondialdehyde (MDA); listed as diclofenac): 67.1 nmol/mg tissue; Jejunum MDA (nmol/mg tissue) (malondialdehyde (MDA); listed as diclofenac): 69.44 nmol/mg tissue

From patent publication US20190388411A1, “NSAID ADMINISTRATION AND RELATED COMPOSITIONS, METHODS AND SYSTEMS” (Alfasigma S.p.A., priority 2013, published 2019)
